Test results published in the supplement of paper PMC10307832.

Legend:
Test in all cases: relative viability (nuclei count vs DMSO), 5 days (fraction); higher = more cells survive
NCI-H441 = test system: NCI-H441
How it was run: (§1)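 Relative viability equals treated-well nuclei counts divided by vehicle-well nuclei counts. Counts came from 4× images of lung cancer cell lines grown in 1536-well plates for 5 days after pin-tool dosing on the day after seeding. Dosing used one drug alone or a fixed anchor-drug dose plus five library-drug doses (not always all listed) in √10 steps, and values are medians of duplicate plates.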

NCI-H1975 = test system: NCI-H1975
How it was run: as §1

HCC-15 = test system: HCC-15
How it was run: as §1

SK-MES-1 = test system: SK-MES-1
How it was run: as §1

NCI-H1792 = test system: NCI-H1792
How it was run: as §1

A-427 = test system: A-427
How it was run: as §1

HCC-44 = test system: HCC-44
How it was run: as §1

NCI-H838 = test system: NCI-H838
How it was run: as §1

NCI-H1650 = test system: NCI-H1650
How it was run: as §1

EKVX = test system: EKVX
How it was run: as §1

HCC-827 = test system: HCC-827
How it was run: as §1

HARA = test system: HARA
How it was run: as §1

COR-L23 = test system: COR-L23
How it was run: as §1

201T = test system: 201T
How it was run: as §1

NCI-H596 = test system: NCI-H596
How it was run: as §1

NCI-H23 = test system: NCI-H23
How it was run: as §1

NCI-H1437 = test system: NCI-H1437
How it was run: as §1

BEN = test system: BEN
How it was run: as §1

Question: Which results are given for `CC(=O)O[C@@]12CO[C@@H]1C[C@H](O)[C@@]1(C)C(=O)[C@H](O)C3=C(C)[C@@H](OC(=O)[C@H](O)[C@@H](NC(=O)OC(C)(C)C)c4ccccc4)C[C@@](O)([C@@H](OC(=O)c4ccccc4)[C@H]21)C3(C)C` [Docetaxel] + CC1(C)CCC(c2ccc(Cl)cc2)=C(CN2CCN(c3ccc(C(=O)NS(=O)(=O)c4ccc(N[C@H](CCN5CCOCC5)CSc5ccccc5)c(S(=O)(=O)C(F)(F)F)c4)cc3)CC2)C1 [Navitoclax] (partner 0.5 µM)?
Answer: relative viability (NCI-H441; first compound 0.0002 µM): 0.486; relative viability (NCI-H441; first compound 0.000632 µM): 0.275; relative viability (NCI-H441; first compound 0.002 µM): 0.204; relative viability (NCI-H441; first compound 0.006325 µM): 0.23; relative viability (NCI-H441; first compound 0.02 µM): 0.13; relative viability (NCI-H1975; first compound 0.0002 µM): 1.1; relative viability (NCI-H1975; first compound 0.000632 µM): 1.11; relative viability (NCI-H1975; first compound 0.002 µM): 0.276; relative viability (NCI-H1975; first compound 0.006325 µM): 0.252; relative viability (NCI-H1975; first compound 0.02 µM): 0.156; relative viability (HCC-15; first compound 0.0002 µM): 0.636; relative viability (HCC-15; first compound 0.000632 µM): 0.372; relative viability (HCC-15; first compound 0.002 µM): 0.221; relative viability (HCC-15; first compound 0.006325 µM): 0.161; relative viability (HCC-15; first compound 0.02 µM): 0.0988; relative viability (SK-MES-1; first compound 0.0002 µM): 1.19; relative viability (SK-MES-1; first compound 0.000632 µM): 0.692; relative viability (SK-MES-1; first compound 0.002 µM): 0.251; relative viability (SK-MES-1; first compound 0.006325 µM): 0.122; relative viability (SK-MES-1; first compound 0.02 µM): 0.108; relative viability (NCI-H1792; first compound 0.0002 µM): 0.441; relative viability (NCI-H1792; first compound 0.000632 µM): 0.614; relative viability (NCI-H1792; first compound 0.002 µM): 0.437; relative viability (NCI-H1792; first compound 0.02 µM): 0.0744; relative viability (A-427; first compound 0.0002 µM): 0.987; relative viability (A-427; first compound 0.000632 µM): 0.926; relative viability (A-427; first compound 0.002 µM): 0.641; relative viability (A-427; first compound 0.006325 µM): 0.26; relative viability (A-427; first compound 0.02 µM): 0.181; relative viability (HCC-44; first compound 0.0002 µM): 0.962; relative viability (HCC-44; first compound 0.000632 µM): 0.934; relative viability (HCC-44; first compound 0.002 µM): 0.362; relative viability (HCC-44; first compound 0.006325 µM): 0.242; relative viability (HCC-44; first compound 0.02 µM): 0.149; relative viability (NCI-H838; first compound 0.0002 µM): 1.15; relative viability (NCI-H838; first compound 0.000632 µM): 1.22; relative viability (NCI-H838; first compound 0.002 µM): 0.29; relative viability (NCI-H838; first compound 0.006325 µM): 0.176; relative viability (NCI-H838; first compound 0.02 µM): 0.135; relative viability (NCI-H1650; first compound 0.0002 µM): 1.13; relative viability (NCI-H1650; first compound 0.000632 µM): 1.02; relative viability (NCI-H1650; first compound 0.002 µM): 0.182; relative viability (NCI-H1650; first compound 0.006325 µM): 0.19; relative viability (NCI-H1650; first compound 0.02 µM): 0.104; relative viability (EKVX; first compound 0.0002 µM): 0.918; relative viability (EKVX; first compound 0.000632 µM): 0.847; relative viability (EKVX; first compound 0.002 µM): 0.37; relative viability (EKVX; first compound 0.006325 µM): 0.196; relative viability (EKVX; first compound 0.02 µM): 0.123; relative viability (HCC-827; first compound 0.0002 µM): 1.02; relative viability (HCC-827; first compound 0.000632 µM): 1.02; relative viability (HCC-827; first compound 0.002 µM): 0.943; relative viability (HCC-827; first compound 0.006325 µM): 0.334; relative viability (HCC-827; first compound 0.02 µM): 0.252; relative viability (HARA; first compound 0.0002 µM): 1.08; relative viability (HARA; first compound 0.000632 µM): 0.912; relative viability (HARA; first compound 0.002 µM): 0.156; relative viability (HARA; first compound 0.006325 µM): 0.107; relative viability (HARA; first compound 0.02 µM): 0.0621; relative viability (COR-L23; first compound 0.0002 µM): 0.899; relative viability (COR-L23; first compound 0.000632 µM): 0.939; relative viability (COR-L23; first compound 0.002 µM): 0.373; relative viability (COR-L23; first compound 0.006325 µM): 0.0756; relative viability (COR-L23; first compound 0.02 µM): 0.0656; relative viability (201T; first compound 0.0002 µM): 1.18; relative viability (201T; first compound 0.000632 µM): 1.21; relative viability (201T; first compound 0.002 µM): 1.06; relative viability (201T; first compound 0.006325 µM): 0.507; relative viability (201T; first compound 0.02 µM): 0.347; relative viability (NCI-H596; first compound 0.0002 µM): 0.882; relative viability (NCI-H596; first compound 0.000632 µM): 0.799; relative viability (NCI-H596; first compound 0.002 µM): 0.565; relative viability (NCI-H596; first compound 0.006325 µM): 0.477; relative viability (NCI-H596; first compound 0.02 µM): 0.208; relative viability (NCI-H23; first compound 0.0002 µM): 0.876; relative viability (NCI-H23; first compound 0.000632 µM): 0.741; relative viability (NCI-H23; first compound 0.002 µM): 0.514; relative viability (NCI-H23; first compound 0.006325 µM): 0.242; relative viability (NCI-H1437; first compound 0.0002 µM): 1.02; relative viability (NCI-H1437; first compound 0.000632 µM): 0.644; relative viability (NCI-H1437; first compound 0.002 µM): 0.182; relative viability (NCI-H1437; first compound 0.02 µM): 0.104; relative viability (BEN; first compound 0.0002 µM): 0.0647; relative viability (BEN; first compound 0.000632 µM): 0.25; relative viability (BEN; first compound 0.002 µM): 0.0618; relative viability (BEN; first compound 0.006325 µM): 0.0423; relative viability (BEN; first compound 0.02 µM): 0.0454
